Patent US12503452B2 (Curza Global, LLC, priority 2019, dated 2025)
Where a name gives a salt, the structure may show the parent alone. Read-outs that look alike come from different tables or passages of the source.

How the values were obtained:
[1] = test system: E. coli S30 extract (bacterial protein synthesis); experiment: E. coli S30 extract coupled transcription-translation luciferase assay (inhibition of bacterial protein synthesis); format: biochemical; conditions: read-out: S30 IC50 (μM/% inhib.)
Experimental: E. coli S30 extract: Inhibition of bacterial protein synthesis was determined using the E. coli S30 Extract System for Circular DNA (Promega catalog #L-2010) and Luciferase Assay Reagent (Promega catalog #E1500) with slight modifications to a published protocol. Fyfe, C., Sutcliffe, J. A. and Grossman, T. H. (2012) “Development and characterization of a Pseudomonas aeruginosa in vitro coupled transcription-translation assay system for evaluation of translation inhibitors” J. Microbiol. Methods 90(3), 256-261.
Compounds were serial diluted in 0.5 mL microcentrifuge tubes by mixing and transferring 50 μL from the highest concentration to 50 μL of water, mixing and transferring 50 μL of this 2-fold dilution to 50 μL of water. This mixing and transferring was repeated so that there are a total of 8 tubes with serial dilutions of compound at 10× the desired screening concentration that are ultimately diluted to 1× by the addition of S30 luciferase synthesis mixture. Serial dilutions of compounds were added (2 μL) to wells in a black round bottom 96-well plate. Water (2 μL) was used as a “no inhibitor” control in 4 wells/plate. No DNA control reaction mixture (20 μL; see below) was used as a control in 4 wells/plate for background luminescence. S30 luciferase synthesis mixture (18 μL; see below) was added to wells with compounds or water mixture and incubated at 37° C. for 1 hour. Reactions were stopped by transferring to 4° C. refrigerator for 5 minutes then 25 μL of luciferase activity mix was added. Luminescence was measured using a BioTek Synergy HTX plate reader. % Inhibition was determined relative to no inhibitor controls.
S30 luciferase synthesis mixture:
• 445 μL S30 extract, circular • 712 μL S30 Premix without amino acids • 4.45 μL pBESTluc™ DNA (1 μg/μL) • 78 μL complete amino acid mixture • 267 μL water No DNA control: • 20 μL S30 extract, circular • 32 μL S30 Premix without amino acids • 7 μL complete amino acid mixture • 21 μL water Rabbit Reticulocyte lysate

P. aeruginosa (Pa) = experiment: Broth microdilution minimum inhibitory concentration (MIC); format: cell-based; conditions: Pseudomonas aeruginosa, P. aeruginosa; growth medium supplemented with sodium bicarbonate; read-out: Pa MIC + bicarb
Experimental: (§1) A certified BSL-2 laboratory was used for testing. Compounds were evaluated using the broth microdilution minimum inhibitory concentration (MIC) and minimum bactericidal concentration (MBC) assays defined by Clinical and Laboratory Standards Institute (CLSI) in the M26-A guideline against S. aureus (Sa), E. coli (Ec), K. pneumoniae (Kp), A. baumannii (Ab), E. faecalis (Ef) and P. aeruginosa (Pa).
(§2) MICs were determined using the Clinical Laboratory and Standards Institute (CLSI) Broth Microdilution Method with slight modification. Clinical and Laboratory Standards Institute (2012). “Methods for dilution antimicrobial susceptibility tests for bacteria that grow aerobically; approved standard, 9th ed. M07-A9. Clinical and Laboratory Standards Institute, Wayne, PA” Serial two-fold dilutions of compounds are prepared in sterile clear round-bottom 96-well plates.
(§3) To prepare microdilution trays, two-fold dilutions of antimicrobial agent are prepared in growth medium: Cation-Adjusted Mueller-Hinton Broth (CAMHB), or CAMHB supplemented with sodium bicarbonate (6.25 or 25 mM final concentration prepared from a 1.0M stock solution) or CAMHB supplemented with heat inactivated human serum (Fisher Cat. #BP2657100) 0-50% by adding 200 μL of the highest concentration to be tested (64 μg/mL, for example) in row A, mixing and transferring 100 μL from row A to 100 μL growth medium in row B, then repeating the mixing and transferring through row H of the 96-well plate, discarding the excess 100 μL remaining. This slight modification to the CLSI protocol enables evaluation of MICs for 3 compounds per plate in triplicate, albeit with only 8 compound dilutions (CLSI protocol enables 2 compounds in triplicate with 10 dilutions). Bacterial suspensions are added to a final concentration of 5×10^4 CFU/well by adding 5 μL of a 1:10 dilution of a 0.5 McFarland suspension (1×10^8 CFU/mL) for each bacterium evaluated. Bacterial suspensions were prepared using the growth method described by CLSI. Well-isolated colonies (3-5 from an agar plate) were selected using a sterile loop and used to inoculate a tube containing 4 mL of CAMHB. The cultures are incubated at 35±2° C. until it achieves or exceeds the turbidity of the 0.5 McFarland standard, determined by measuring A600nm (usually two to six hours). When growth exceeds a 0.5 McFarland standard, the turbidity is adjusted with broth to be equivalent to a 0.5 McFarland standard.

E. coli (Ec) = experiment: as above; format: cell-based; conditions: Escherichia coli, read-out: E. coli + bicarb MIC
Experimental: as §1, §2, §3

[2] = target: Rabbit Reticulocyte Lysate (eukaryotic protein synthesis); experiment: Rabbit reticulocyte lysate luciferase assay (inhibition of eukaryotic protein synthesis); format: biochemical; conditions: read-out: Rabbit reticulocyte IC50 (μM/% inhib.)
Experimental: Inhibition of eukaryotic protein synthesis was determined using the Rabbit Reticulocyte Lysate System, Nuclease-Treated from Promega (catalog #L-4960) with slight modifications to the manufacturer's protocol. Compounds were serial diluted in 0.5 mL microcentrifuge tubes by mixing and transferring 50 μL from the highest concentration to 50 μL of water, mixing and transferring 50 μL of this 2-fold dilution to 50 μL of water. This mixing and transferring was repeated so that there are a total of 8 tubes with serial dilutions of compound at 10× the desired screening concentration that are ultimately diluted to 1× by the addition of rabbit reticulocyte luciferase synthesis mixture. Serial dilutions of compounds were added ([…]) to wells in a black round bottom 96-well plate. Water (2.5 μL) was used as a “no inhibitor” control in 4 wells/plate. No RNA control reaction mixture ([…]; see below) was used as a control in 4 wells/plate for background luminescence. Rabbit reticulocyte luciferase synthesis mixture (22.5 μL; see below) was added to wells with compounds or water mixture and incubated at 30° C. for 90 minutes. Luciferase assay reagent (25 μL) was added with luminescence measured using a BioTek Synergy HTX plate reader. % Inhibition was determined relative to no inhibitor controls.
Rabbit reticulocyte luciferase synthesis mixture:
• 1,000 μL rabbit reticulocyte lysate • 5.7 μL Luciferase Control RNA (1 μg/μL) • 26 μL complete amino acid mixture • 395 μL water No RNA Control • 70 μL rabbit reticulocyte lysate • 2 μL complete amino acid mixture • 28 μL water Minimum Inhibitory Concentration (MIC)

A. baumannii (Ab) = experiment: Broth microdilution minimum inhibitory concentration (MIC); format: cell-based; conditions: Acinetobacter baumannii; A. baumannii; growth medium supplemented with sodium bicarbonate; read-out: Ab + bicarb MIC
Experimental: as §1, §2, §3

[3] = class by IC50 or % inhibition @ 1 μM
[4] = E. coli, growth medium supplemented with sodium bicarbonate
[5] = E. coli, growth medium with sodium bicarbonate

SMILES | IC50 [1, 3] [µM] | IC50 [2, 3] [µM] | MIC (E. coli (Ec); [5]) [µg/mL] | also measured
CC(C)(N)C(=O)N1CCN(C(=O)Nc2ccn(-c3cccc(CCN4CCC(N)CC4)c3)c(=O)n2)CC1 [Compound 2] | < 0.5 | > 1 | – | MIC (P. aeruginosa (Pa)): > 32 µg/mL; MIC (E. coli (Ec); [4]): 8 to 32 µg/mL
C[C@H]1CN(C(=O)C(C)(C)N)CCN1C(=O)Nc1ccn(-c2ccc(CN3CCC(N)CC3)cc2)c(=O)n1 [Compound 56] | < 0.5 | > 1 | – | MIC (P. aeruginosa (Pa)): > 32 µg/mL; MIC (E. coli (Ec); [4]): < 8 µg/mL
CC(C)(N)C(=O)N1CCN(C(=O)Nc2ccn(-c3ccc(CN4CCC(N)CC4)cc3)c(=O)c2)[C@H](C(=O)O)C1 [Compound 64] | < 0.5 | > 1 | – | MIC (P. aeruginosa (Pa)): > 32 µg/mL; MIC (E. coli (Ec); [4]): > 32 µg/mL
C[C@@H]1CN(C(=O)Nc2ccn(-c3ccc(CN4CCC(CN)CC4)cc3)c(=O)n2)CCN1C(=O)C(C)(C)N [Compound 65] | < 0.5 | > 1 | – | MIC (P. aeruginosa (Pa)): > 32 µg/mL; MIC (E. coli (Ec); [4]): < 8 µg/mL
CC(C)(N)C(=O)N1CCN(C(=O)Nc2ccn(-c3ccc(CN4CCC(N)CC4)c(Cl)c3)c(=O)n2)CC1 [Compound 99] | < 0.5 | > 1 | – | MIC (P. aeruginosa (Pa)): > 32 µg/mL; MIC (E. coli (Ec); [4]): < 8 µg/mL
C[C@](N)(CO)C(=O)N1CCN(C(=O)Nc2ccn(-c3cc(CN4CCC(N)CC4)cc(OC(F)(F)F)c3)c(=O)n2)CC1 [Compound 103] | > 1 | > 1 | – | MIC (E. coli (Ec); [4]): > 32 µg/mL; MIC (A. baumannii (Ab)): > 32 µg/mL
C[C@@H](N)C1CCN(Cc2ccc(-n3ccc(NC(=O)N4CCN(C(=O)[C@@](C)(N)CO)CC4)nc3=O)cc2)CC1 [Compound 222] | < 0.5 | > 1 | < 8 | –
CC(C)(N)CN1CCN(Cc2ccc(-n3ccc(NC(=O)N4CCN(C(=O)C(C)(C)N)CC4)nc3=O)cc2)CC1 [Compound 226] | < 0.5 | > 1 | < 8 | –
CC(C)(N)N1CCN(C(=O)Nc2ccn(-c3ccc(CN4CCC(N)CC4)cc3)c(=O)n2)CC1 [Compound 230] | > 1 | > 1 | 8 to 32 | –
Cc1cn(-c2ccc(CN3CCC(N)CC3)cc2)c(=O)nc1NC(=O)N1CCN(C(=O)C(C)(C)N)CC1 [Compound 234] | > 1 | > 1 | > 32 | –
CC(C)(N)C(=O)N1CCN(C(=O)Nc2ccn(-c3ccc(CN4CCC[C@@H](N)C4)cc3)c(=O)n2)CC1 [Compound 236] | > 1 | > 1 | < 8 | –
CC(C)(N)C(=O)N1CCN(C(=O)Nc2ccn(-c3ccc(CN4CCC[C@H](N)C4)cc3)c(=O)n2)CC1 [Compound 237] | 0.5 to 1 | > 1 | < 8 | –
CC1(N)CN(Cc2ccc(-n3ccc(NC(=O)N4CCN(C(=O)C(C)(C)N)CC4)nc3=O)cc2)C1 [Compound 238] | > 1 | > 1 | < 8 | –
CC(C)(N)C(=O)N1CCN(C(=O)Nc2ccn(-c3ccc(CN4CC[C@@H](N)C4)cc3)c(=O)n2)CC1 [Compound 239] | < 0.5 | > 1 | < 8 | –
CC(C)(N)C(=O)N1CCN(C(=O)Nc2ccn(-c3ccc(CN4CCCCC(N)C4)cc3)c(=O)n2)CC1 (stereo not drawn) [Compound 240] | 0.5 to 1 | > 1 | > 32 | –
CC(C)(N)C(=O)N1CCN(C(=O)Nc2ccn(-c3ccc(CN4CC[C@H](N)C4)cc3)c(=O)n2)CC1 [Compound 241] | < 0.5 | > 1 | 8 to 32 | –
CC(C)(N)C(=O)N1CCN(C(=O)Nc2ccn(-c3ccc(CN4CC(N)C4)cc3)c(=O)n2)CC1 [Compound 244] | > 1 | > 1 | < 8 | –
CC1(N)CCCN(Cc2ccc(-n3ccc(NC(=O)N4CCN(C(=O)C(C)(C)N)CC4)nc3=O)cc2)C1 (stereo not drawn) [Compound 246] | > 1 | > 1 | < 8 | –
CC(C)(N)C(=O)N1CCN(C(=O)Nc2ccn(-c3ccc(CN4CCC(F)(CN)CC4)cc3)c(=O)n2)CC1 [Compound 248] | < 0.5 | > 1 | < 8 | –
CNC1CCN(Cc2ccc(-n3ccc(NC(=O)N4CCN(C(=O)C(C)(C)N)CC4)nc3=O)cc2)CC1 [Compound 250] | < 0.5 | > 1 | < 8 | –
CC1CC(N)CCN1Cc1ccc(-n2ccc(NC(=O)N3CCN(C(=O)C(C)(C)N)CC3)nc2=O)cc1 (stereo not drawn) [Compound 252] | < 0.5 | > 1 | < 8 | –
CC(C)(N)C(=O)N1CCN(C(=O)Nc2ccn(-c3ccc(CN4CCC(C(C)(C)N)CC4)cc3)c(=O)n2)CC1 [Compound 253] | < 0.5 | > 1 | < 8 | –
CC1(N)CCCN(Cc2ccc(-n3ccc(NC(=O)N4CCN(C(=O)C(C)(C)N)CC4)nc3=O)cc2)CC1.Cl (stereo not drawn) [Compound 255] | < 0.5 | > 1 | < 8 | –
CC(C)(N)C(=O)N1CCN(C(=O)Nc2ccn(-c3ccc(CN4CC[C@@H](N)C(O)C4)cc3)c(=O)n2)CC1 (stereo partly drawn) [Compound 267] | < 0.5 | > 1 | < 8 | –
CC(Cc1ccc(-n2ccc(NC(=O)N3CCN(C(=O)C(C)(C)N)CC3)nc2=O)cc1)NCC1CNC1 (stereo not drawn) [Compound 346, hydrochloride salt] | – | > 1 | – | IC50 ([1]; class by IC50 or % inhibition @ 1 μM, hydrochloride salt): 0.5 to 1 µM; MIC (E. coli (Ec)): > 32 µg/mL
C[C@](N)(CO)C(=O)N1CCN(C(=O)Nc2ccn(-c3ccc(CCN4CCCC(N)CC4)cc3)c(=O)n2)CC1 (stereo partly drawn) [Compound 381] | – | – | < 8 | IC50 ([1]; % inhibition @ 1 μM): < 0.5 µM; IC50 ([2]; % inhibition @ 1 μM): > 1 µM
